Results reported in the supplement of paper PMC10307832.

Experiments:
Experiment in all cases: relative viability (nuclei count vs DMSO), 5 days (fraction); higher = more cells survive
[1] = compound: CC1=CC(=NN1)NC2=CC(=NC(=N2)/C=C/C3=CC=CC=C3)N4CCN(CC4)C + CS(=O)(=O)N1CCN(Cc2cc3nc(-c4cccc5[nH]ncc45)nc(N4CCOCC4)c3s2)CC1 [Pictilisib] (partner 1 µM)
Method in brief: (§1)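 Relative viability was taken as the ratio of nuclei in treated wells to nuclei in vehicle wells. Lung cancer cell lines in 1536-well plates received compounds by pin tool one day after seeding, either one drug alone or a fixed anchor-drug dose plus five library-drug doses (not always all listed) in √10 steps. Nuclei were counted on 4× images after 5 days of treatment, and values are medians of duplicate plates.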

[2] = compound: CC(C)C[C@H](NC(=O)[C@H](Cc1ccccc1)NC(=O)c1cnccn1)B(O)O [Bortezomib] + NC(=O)Nc1cc(-c2cccc(F)c2)sc1C(=O)N[C@H]1CCCNC1 [AZD7762] (partner 0.2 µM)
Method in brief: as §1

[3] = compound: CC(C)C[C@H](NC(=O)[C@H](Cc1ccccc1)NC(=O)c1cnccn1)B(O)O [Bortezomib] + Cc1nc(Nc2ncc(C(=O)Nc3c(C)cccc3Cl)s2)cc(N2CCN(CCO)CC2)n1 [Dasatinib] (partner 0.075 µM)
Method in brief: as §1

[4] = compound: COC1=CC(c2cc3ccccc3[nH]2)=N/C1=C\c1[nH]c(C)cc1C [Obatoclax] + C[C@]1(O)C[C@@H](c2nc(-c3ccc4ccc(-c5ccccc5)nc4c3)c3c(N)nccn32)C1 [Linsitinib] (partner 1 µM)
Method in brief: as §1

| Cell Line | relative viability ([1]; first compound 0.08 µM) | relative viability ([1]; first compound 0.253 µM) | relative viability ([1]; first compound 0.8 µM) | relative viability ([1]; first compound 2.53 µM) | relative viability ([1]; first compound 8 µM) | relative viability ([2]; first compound 0.0002 µM) | relative viability ([2]; first compound 0.000632 µM) | relative viability ([2]; first compound 0.002 µM) | relative viability ([2]; first compound 0.006325 µM) | relative viability ([2]; first compound 0.02 µM) | relative viability ([3]; first compound 0.0002 µM) | relative viability ([3]; first compound 0.000632 µM) | relative viability ([3]; first compound 0.002 µM) | relative viability ([3]; first compound 0.006325 µM) | relative viability ([3]; first compound 0.02 µM) | relative viability ([4]; first compound 0.01 µM) | relative viability ([4]; first compound 0.03162 µM) | relative viability ([4]; first compound 0.1 µM) | relative viability ([4]; first compound 0.3162 µM) | relative viability ([4]; first compound 1 µM) |
| --- | --- | --- | --- | --- | --- | --- | --- | --- | --- | --- | --- | --- | --- | --- | --- | --- | --- | --- | --- | --- |
| RERF-LC-KJ | 0.593 | 0.519 | 0.495 | 0.27 | 0.168 | 0.819 | 1.12 | 1.12 | 0.966 | 0.409 | 0.833 | 0.695 | 0.946 | 0.219 | 0.234 | 0.884 | 0.947 | 0.871 | 0.868 | 0.808 |
| NCI-H1755 | 0.418 | 0.351 | 0.419 | 0.195 | 0.0971 | 0.442 | 0.425 | 0.508 | 0.287 | 0.2 | 0.449 | 0.326 | 0.418 | 0.176 | 0.196 | 0.986 | 0.996 | 0.96 | 0.991 | 1.03 |
| PC-14 | 0.651 | 0.635 | 0.56 | 0.199 | 0.0209 | 0.279 | 0.336 | 0.364 | 0.123 | 0.0742 | 0.294 | 0.236 | 0.168 | 0.028 | 0.0371 | 0.911 | 1.01 | 0.892 | 0.902 | 0.58 |
| NCI-H322M | 0.456 | 0.52 | 0.463 | 0.219 | 0.242 | 0.539 | 0.636 | 0.654 | 0.385 | 0.393 | 0.26 |  | 0.253 | 0.229 | 0.286 | 0.943 | 0.958 | 0.941 | 0.893 | 0.89 |
| NCI-H1666 | 0.494 | 0.389 | 0.358 | 0.325 | 0.176 | 0.849 | 0.935 | 0.817 | 0.592 | 0.333 | 0.759 | 0.845 | 0.837 | 0.329 | 0.326 | 0.876 | 0.822 | 0.745 | 0.313 | 0.275 |
| A-427 | 0.836 | 0.247 | 0.741 | 0.401 | 0.11 | 0.719 | 0.872 | 0.763 | 0.197 | 0.146 | 0.611 | 0.746 | 0.716 | 0.408 | 0.104 | 1.07 | 0.775 | 1.11 | 1.15 | 1.13 |
| NCI-H358 | 0.296 | 0.29 | 0.293 | 0.138 | 0.108 | 0.615 | 0.285 | 0.619 | 0.241 | 0.225 | 0.162 | 0.153 | 0.164 | 0.084 | 0.073 | 0.735 | 0.504 | 0.394 | 0.344 | 0.278 |
| NCI-H1651 | 0.656 | 0.622 | 0.583 | 0.201 | 0.0876 | 0.451 | 0.474 | 0.485 | 0.507 | 0.131 | 0.387 | 0.442 | 0.153 | 0.105 | 0.0988 | 0.915 | 0.961 | 0.91 | 0.432 | 0.271 |
| 201T | 0.668 | 0.683 | 0.67 | 0.643 | 0.607 | 0.602 | 0.684 | 0.59 | 0.661 | 0.38 | 0.571 | 0.607 | 0.536 | 0.589 | 0.283 | 1.04 | 1.01 | 1.02 | 1.06 | 1.03 |
| NCI-H460 | 0.32 | 0.427 | 0.383 | 0.221 | 0.036 | 0.55 | 0.706 | 0.724 | 0.672 | 0.044 | 0.437 | 0.507 | 0.514 | 0.342 | 0.0305 | 0.719 | 0.864 | 0.582 | 0.0258 | 0.0195 |
| NCI-H596 | 0.406 | 0.417 | 0.388 | 0.253 | 0.271 | 0.983 | 1.22 | 1.15 | 0.634 | 0.205 | 0.488 | 0.519 | 0.596 | 0.2 | 0.184 | 1.07 | 0.945 | 0.809 | 0.66 | 0.731 |
| HARA | 0.396 | 0.37 | 0.348 | 0.204 | 0.0756 | 0.257 | 0.311 | 0.577 | 0.178 | 0.0909 | 0.206 | 0.239 | 0.259 | 0.105 | 0.0621 | 0.923 | 0.316 | 1.03 | 0.703 | 0.919 |
| NCI-H1793 | 0.229 | 0.235 | 0.306 | 0.293 | 0.116 | 0.512 |  | 0.394 | 0.803 | 0.0834 | 0.35 | 0.324 | 0.381 | 0.361 | 0.168 | 0.802 | 0.662 | 0.935 | 0.77 | 0.78 |
| NCI-H2126 | 0.499 | 0.461 | 0.522 | 0.482 | 0.338 | 1 | 1.01 | 0.968 | 0.942 | 0.516 | 0.58 | 0.607 | 0.662 | 0.254 | 0.2 | 0.684 | 0.713 | 0.722 | 0.712 | 0.705 |
| HCC-827 | 0.961 | 1.02 | 1.07 | 0.747 | 0.8 | 0.267 | 0.259 | 0.18 | 0.215 | 0.199 | 0.302 | 0.285 | 0.259 | 0.34 | 0.199 | 0.904 | 1.01 | 0.895 | 0.866 | 0.914 |
| ABC-1 | 0.764 | 0.76 | 0.792 | 0.284 | 0.173 |  | 0.712 | 0.184 | 0.223 | 0.191 | 0.6 | 0.317 | 0.243 | 0.224 | 0.233 | 0.619 | 0.768 | 0.815 | 0.928 | 0.372 |
